Activity calls are given as the source filed them. No cut-off for these calls is given here.
Experiments:
[1] = Antiproliferative activity against human SaOS-LM7 cells assessed as maximum inhibition of cell viability incubated for 3 days by MTS assay relative to control; format: functional; conditions: time 3 day
[2] = system: SAOS-2; test: Antiproliferative activity against human SAOS-2 cells assessed as maximum inhibition of cell viability incubated for 3 days by MTS assay relative to control; format: functional; conditions: time 3 day
[3] = biological target: T1, Transcriptional enhancer factor TEF-1 (Homo sapiens, UniProt P28347); test: Inhibition of TEAD1 (unknown origin) transfected in human HEK293 cells co-transfected with renilla plasmid assessed as maximum inhibition of transcriptional activity at 10 uM incubated for 24 hrs by dual Glo-luciferase reporter assay relative to control; format: cell-based
[4] = biological target: T2, Transcriptional enhancer factor TEF-4 (Homo sapiens, UniProt Q15562); test: Inhibition of TEAD2 (unknown origin) transfected in human HEK293 cells co-transfected with renilla plasmid assessed as inhibition of transcriptional activity incubated for 24 hrs by dual Glo-luciferase reporter assay; format: cell-based
[5] = system: MDA-MB-468; test: Antiproliferative activity against human MDA-MB-468 cells assessed as reduction in cell viability incubated for 3 days by MTS assay; format: functional, cell-based
[6] = biological target: T3, Transcriptional enhancer factor TEF-5 (Homo sapiens, UniProt Q99594); test: Inhibition of TEAD3 (unknown origin) transfected in human HEK293 cells co-transfected with renilla plasmid assessed as inhibition of transcriptional activity incubated for 24 hrs by dual Glo-luciferase reporter assay; format: cell-based
[7] = biological target: T2, Transcriptional enhancer factor TEF-4; test: Displacement of FAM- labeled YAP1 peptide (60 to 99 residues) from human TEAD2 (217 to 447 residues) expressed in Escherichia coli BL21 (DE3) cells assessed as maximum inhibition at 0.2 to 100 uM incubated for 24 hrs by fluorescence polarization-based competitive binding assay relative to control; conditions: dose 0.2-100 µM
[8] = biological target: T4, Transcriptional enhancer factor TEF-3 (Homo sapiens, UniProt Q15561); test: Displacement of FAM- labeled YAP1 peptide (60 to 99 residues) from human TEAD4 (217 to 434 residues) expressed in Escherichia coli BL21 (DE3) cells at 100 uM incubated for 24 hrs followed by dialysis buffer for 24 hrs
[9] = biological target: T5, YAP1-TEAD4 (Homo sapiens) (UniProt P46937+Q15561); test: Inhibition of NanoLuc-tagged TEAD4 (unknown origin)-Halo-Tagged YAP1 (unknown origin) protein-protein interaction transfected in HEK293 cells using furimazine as substrate at 0.9 to 30 uM incubated for 24 hrs by NanoBRET binding assay; format: cell-based; conditions: dose 0.9-30 µM
[10] = biological target: T4, Transcriptional enhancer factor TEF-3; test: Inhibition of TEAD4 (unknown origin) transfected in human HEK293 cells co-transfected with renilla plasmid assessed as maximum inhibition of transcriptional activity at 0.1 to 10 uM incubated for 24 hrs by dual Glo-luciferase reporter assay relative to control; format: cell-based; conditions: dose 0.1-10 µM
[11] = system: Huh-7; test: Antiproliferative activity against human Huh-7 cells assessed as maximum inhibition of cell viability incubated for 3 days by MTS assay relative to control; format: functional; conditions: time 3 day
[12] = system: SAOS-2; test: Antiproliferative activity against human SAOS-2 cells assessed as reduction in cell viability incubated for 3 days by MTS assay; format: functional, cell-based; conditions: SAOS-2, 72 h
[13] = biological target: T1, Transcriptional enhancer factor TEF-1; test: Displacement of FAM- labeled YAP1 peptide (60 to 99 residues) from human TEAD1 (209 to 426 residues) expressed in Escherichia coli BL21 (DE3) cells incubated for 24 hrs by fluorescence polarization-based competitive binding assay; conditions: read-out: IC50
[14] = biological target: T6, Transcriptional coactivator YAP1/Transcriptional enhancer factor TEF-1 (Homo sapiens) (UniProt P46937+P28347); test: Inhibition of NanoLuc-tagged TEAD1 (unknown origin)-Halo-Tagged YAP1 (unknown origin) protein-protein interaction transfected in HEK293 cells using furimazine as substrate at 1.1 to 30 uM incubated for 24 hrs by NanoBRET binding assay; format: cell-based; conditions: dose 1.1-30 µM
[15] = Antiproliferative activity against human 90-8 cells assessed as maximum inhibition of cell viability incubated for 3 days by MTS assay relative to control; format: functional; conditions: time 3 day
[16] = Antiproliferative activity against human 90-8 cells assessed as reduction in cell viability incubated for 3 days by MTS assay; format: functional, cell-based; conditions: 90-8, 72 h
[17] = system: Huh-7; test: Antiproliferative activity against human Huh-7 cells assessed as reduction in cell viability incubated for 3 days by MTS assay; format: functional, cell-based; conditions: Huh-7, 72 h
[18] = biological target: T3, Transcriptional enhancer factor TEF-5; test: Displacement of FAM- labeled YAP1 peptide (60 to 99 residues) from human TEAD3 (210 to 427 residues) expressed in Escherichia coli BL21 (DE3) cells incubated for 24 hrs by fluorescence polarization-based competitive binding assay
[19] = biological target: T6, Transcriptional coactivator YAP1/Transcriptional enhancer factor TEF-1 (Homo sapiens); test: Inhibition of NanoLuc-tagged TEAD1 (unknown origin)-Halo-Tagged YAP1 (unknown origin) protein-protein interaction transfected in HEK293 cells using furimazine as substrate at 10 uM incubated for 2 to 24 hrs by NanoBRET binding assay; format: cell-based; conditions: time 2-24 hrs, TDE = time-dependent effect
[20] = biological target: T2, Transcriptional enhancer factor TEF-4; test: Inhibition of TEAD2 (unknown origin) transfected in human HEK293 cells co-transfected with renilla plasmid assessed as maximum inhibition of transcriptional activity at 0.1 to 10 uM incubated for 24 hrs by dual Glo-luciferase reporter assay relative to control; format: cell-based; conditions: dose 0.1-10 µM
[21] = Antiproliferative activity against human ST88-14 cells assessed as maximum inhibition of cell viability incubated for 3 days by MTS assay relative to control; format: functional; conditions: time 3 day
[22] = biological target: T1, Transcriptional enhancer factor TEF-1; test: Inhibition of TEAD1 (unknown origin) transfected in human HEK293 cells co-transfected with renilla plasmid assessed as inhibition of transcriptional activity incubated for 24 hrs by dual Glo-luciferase reporter assay; format: cell-based
[23] = Antiproliferative activity against human ST88-14 cells assessed as reduction in cell viability incubated for 3 days by MTS assay; format: functional, cell-based; conditions: ST88-14, 72 h
[24] = Antiproliferative activity against human SaOS-LM7 cells assessed as reduction in cell viability incubated for 3 days by MTS assay; format: functional, cell-based; conditions: SaOS-LM7, 72 h
[25] = biological target: T4, Transcriptional enhancer factor TEF-3; test: Displacement of FAM- labeled YAP1 peptide (60 to 99 residues) from human TEAD4 (217 to 434 residues) expressed in Escherichia coli BL21 (DE3) cells incubated for 24 hrs by fluorescence polarization-based competitive binding assay
[26] = system: MDA-MB-468; test: Inhibition of TEAD in human MDA-MB-468 cells assessed as maximal inhibition of CTGF transcriptional level at 0.01 to 100 uM incubated for 24 hrs by qRT-PCR assay relative to control; format: cell-based; conditions: dose 0.01-100 µM
[27] = biological target: T5, YAP1-TEAD4 (Homo sapiens); test: Inhibition of myc-tagged TEAD4 (unknown origin)-Flag-Tagged YAP1 (unknown origin) protein-protein interaction transfected in HEK293 cells using furimazine as substrate at 1.1 to 11 uM incubated for 24 hrs by pull-down coimmunoprecipitation assay; format: cell-based; conditions: dose 1.1-11 µM
[28] = biological target: T5, YAP1-TEAD4 (Homo sapiens); test: Inhibition of NanoLuc-tagged TEAD4 (unknown origin)-Halo-Tagged YAP1 (unknown origin) protein-protein interaction transfected in HEK293 cells using furimazine as substrate at 10 uM incubated for 2 to 24 hrs by NanoBRET binding assay; format: cell-based; conditions: time 2-24 hrs
[29] = biological target: T1, Transcriptional enhancer factor TEF-1; test: Inhibition of TEAD1 (unknown origin) transfected in human HEK293 cells co-transfected with renilla plasmid assessed as maximum inhibition of transcriptional activity at 0.1 to 10 uM incubated for 24 hrs by dual Glo-luciferase reporter assay relative to control; format: cell-based; conditions: dose 0.1-10 µM
[30] = biological target: T2, Transcriptional enhancer factor TEF-4; test: Displacement of FAM- labeled YAP1 peptide (60 to 99 residues) from human TEAD2 (217 to 447 residues) expressed in Escherichia coli BL21 (DE3) cells incubated for 24 hrs by fluorescence polarization-based competitive binding assay
[31] = biological target: T5, YAP1-TEAD4 (Homo sapiens); test: Inhibition of NanoLuc-tagged TEAD4 (unknown origin)-Halo-Tagged YAP1 (unknown origin) protein-protein interaction transfected in HEK293 cells using furimazine as substrate at 1.1 to 30 uM incubated for 24 hrs by NanoBRET binding assay; format: cell-based; conditions: dose 1.1-30 µM
[32] = biological target: T2, Transcriptional enhancer factor TEF-4; test: Inhibition of TEAD2 (unknown origin) transfected in human HEK293 cells co-transfected with renilla plasmid assessed as maximum inhibition of transcriptional activity at 10 uM incubated for 24 hrs by dual Glo-luciferase reporter assay relative to control; format: cell-based
[33] = biological target: T4, Transcriptional enhancer factor TEF-3; test: Inhibition of TEAD4 (unknown origin) transfected in human HEK293 cells co-transfected with renilla plasmid assessed as inhibition of transcriptional activity incubated for 24 hrs by dual Glo-luciferase reporter assay; format: cell-based; conditions: read-out: IC50
[34] = biological target: T4, Transcriptional enhancer factor TEF-3; test: Inhibition of TEAD4 (unknown origin) transfected in human HEK293 cells co-transfected with renilla plasmid assessed as maximum inhibition of transcriptional activity at 0.01 to 100 uM incubated for 24 hrs by dual Glo-luciferase reporter assay relative to control; format: cell-based; conditions: dose 0.01-100 µM
[35] = system: MDA-MB-468; test: Antiproliferative activity against human MDA-MB-468 cells assessed as maximum inhibition of cell viability incubated for 3 days by MTS assay relative to control; format: functional, cell-based; conditions: time 3.0 day
[36] = Inhibition of TEAD in human MDA-MB-468 cells assessed as inhibition of CTGF transcriptional level incubated for 24 hrs by qRT-PCR assay; format: cell-based; conditions: Homo sapiens, MDA-MB-468, 24 h; read-out: IC50
[37] = system: Transcriptional enhancer factor TEF-3 (Homo sapiens), Q15561 [C367S]; test: Displacement of FAM- labeled YAP1 peptide (60 to 99 residues) from human TEAD4 (217 to 434 residues) C367S mutant expressed in Escherichia coli BL21 (DE3) cells at 0.2 to 100 uM incubated for 24 hrs by fluorescence polarization-based competitive binding assay; conditions: dose 0.2-100 µM
Chain of Transcriptional enhancer factor TEF-3 (Homo sapiens), Q15561 [C367S] (Q15561 whole entry C367S, the tested form may be a part): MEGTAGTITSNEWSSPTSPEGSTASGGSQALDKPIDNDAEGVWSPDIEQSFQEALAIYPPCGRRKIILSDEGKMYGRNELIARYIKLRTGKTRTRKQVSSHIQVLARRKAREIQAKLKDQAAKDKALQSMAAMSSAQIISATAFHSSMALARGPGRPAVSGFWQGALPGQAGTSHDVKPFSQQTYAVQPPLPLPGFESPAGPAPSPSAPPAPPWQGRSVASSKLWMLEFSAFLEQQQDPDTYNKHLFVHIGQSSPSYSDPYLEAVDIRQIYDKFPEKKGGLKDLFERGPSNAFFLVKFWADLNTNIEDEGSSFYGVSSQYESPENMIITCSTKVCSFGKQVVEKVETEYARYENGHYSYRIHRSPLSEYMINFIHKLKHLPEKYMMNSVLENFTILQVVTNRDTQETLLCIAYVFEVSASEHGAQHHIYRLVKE

T2 sequence (Q15562 whole entry): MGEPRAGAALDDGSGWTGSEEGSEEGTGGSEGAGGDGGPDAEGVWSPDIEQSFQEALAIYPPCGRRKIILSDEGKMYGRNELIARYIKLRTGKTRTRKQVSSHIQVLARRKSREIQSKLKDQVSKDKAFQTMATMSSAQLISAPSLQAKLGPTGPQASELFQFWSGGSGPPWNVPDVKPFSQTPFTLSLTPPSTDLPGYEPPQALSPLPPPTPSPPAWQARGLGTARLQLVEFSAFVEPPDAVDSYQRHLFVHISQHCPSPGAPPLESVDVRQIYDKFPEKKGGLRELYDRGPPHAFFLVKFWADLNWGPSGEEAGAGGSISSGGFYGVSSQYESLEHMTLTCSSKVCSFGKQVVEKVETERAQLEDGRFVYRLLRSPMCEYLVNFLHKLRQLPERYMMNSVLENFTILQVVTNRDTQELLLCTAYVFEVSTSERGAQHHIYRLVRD
T3 sequence (Q99594 whole entry, the tested form may be a part): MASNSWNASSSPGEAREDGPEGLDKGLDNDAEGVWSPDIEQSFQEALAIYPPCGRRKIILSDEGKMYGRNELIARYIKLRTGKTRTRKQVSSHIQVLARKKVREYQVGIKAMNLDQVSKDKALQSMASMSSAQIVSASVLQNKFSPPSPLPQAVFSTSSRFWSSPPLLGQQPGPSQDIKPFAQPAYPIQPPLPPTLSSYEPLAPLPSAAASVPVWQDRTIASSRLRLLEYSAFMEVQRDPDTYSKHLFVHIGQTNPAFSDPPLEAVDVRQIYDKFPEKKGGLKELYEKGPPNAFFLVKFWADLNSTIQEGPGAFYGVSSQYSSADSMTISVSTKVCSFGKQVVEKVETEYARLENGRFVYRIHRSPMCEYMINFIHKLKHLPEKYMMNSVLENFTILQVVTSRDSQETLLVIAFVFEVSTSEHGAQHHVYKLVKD
T4 sequence (Q15561 whole entry, the tested form may be a part): as the sequence (Q15561 whole entry C367S, the tested form may be a part) above, with S367C counted along it
T1 sequence (P28347 whole entry): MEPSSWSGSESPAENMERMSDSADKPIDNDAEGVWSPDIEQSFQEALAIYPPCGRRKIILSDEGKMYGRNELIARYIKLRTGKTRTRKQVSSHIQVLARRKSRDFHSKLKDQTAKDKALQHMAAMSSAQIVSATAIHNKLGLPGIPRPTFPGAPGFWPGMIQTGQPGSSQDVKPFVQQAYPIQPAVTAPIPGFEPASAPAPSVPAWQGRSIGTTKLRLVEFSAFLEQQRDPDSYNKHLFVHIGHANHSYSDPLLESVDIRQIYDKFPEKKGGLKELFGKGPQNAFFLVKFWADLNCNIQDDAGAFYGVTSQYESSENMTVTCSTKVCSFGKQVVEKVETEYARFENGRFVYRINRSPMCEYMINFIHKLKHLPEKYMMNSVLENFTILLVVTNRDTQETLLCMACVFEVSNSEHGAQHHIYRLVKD
T6 sequence (P28347 whole entry, looked up): as the sequence (P28347 whole entry) above
T6 sequence (P46937 whole entry, looked up): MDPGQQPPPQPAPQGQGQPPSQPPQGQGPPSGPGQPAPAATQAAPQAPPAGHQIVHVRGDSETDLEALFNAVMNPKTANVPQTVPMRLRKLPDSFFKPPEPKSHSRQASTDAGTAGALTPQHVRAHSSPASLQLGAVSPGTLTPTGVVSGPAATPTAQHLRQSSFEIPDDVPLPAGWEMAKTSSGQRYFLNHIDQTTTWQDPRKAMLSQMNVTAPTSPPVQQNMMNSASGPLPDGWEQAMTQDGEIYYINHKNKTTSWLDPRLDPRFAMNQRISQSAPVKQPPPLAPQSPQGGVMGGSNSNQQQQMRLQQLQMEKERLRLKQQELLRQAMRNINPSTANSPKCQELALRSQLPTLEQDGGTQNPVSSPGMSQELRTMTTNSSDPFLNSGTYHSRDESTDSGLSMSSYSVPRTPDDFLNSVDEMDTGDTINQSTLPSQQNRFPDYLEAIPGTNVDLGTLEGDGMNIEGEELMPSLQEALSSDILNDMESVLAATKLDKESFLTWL

SMILES	inhibition [3]	IC50 [4] [nM]	IC50 [6] [nM]	Imax [7] [%]	Imax [10] [%]	IC50 [13] [nM]	IC50 [18]	Imax [20] [%]	IC50 [22] [nM]	IC50 ([25]; read-out: IC50) [nM]	Imax [26] [%]	Imax [29] [%]	IC50 [30] [nM]	inhibition [32]	IC50 [33] [nM]	Imax [34] [%]	IC50 [36] [nM]	inhibition [37]	further results
N#CN1Cc2cccc(Nc3cccc(C(F)(F)F)c3)c2C1	40%	2700	2200	34	61.8	900	Not Active	42.7	5100	1100	65.7	51.2	1200	40%	5000	46.6	600	inactive	Imax [1]: 60.7%; Imax [2]: 53.4%; IC50 [5]: Not Active; inhibition [8]: Active; inhibition [9]: Active; Imax [11]: 48.3%; IC50 [12]: 100 nM; inhibition [14]: Active; Imax [15]: 51.4%; IC50 [16]: 3500 nM; IC50 [17]: 100 nM; inhibition [19]: Tde; Imax [21]: 31%; IC50 [23]: 30 nM; IC50 [24]: 200 nM; inhibition [27]: Dose-Dependent Effect; inhibition ([28]; TDE = time-dependent effect): Tde; inhibition [31]: Active; Imax [35]: inactive
N#CN1CC2CCCC(Nc3cccc(C(F)(F)F)c3)C2C1 (centres undefined)		2200	1200	45	41.3	1600	Not Active	28.2	1600	51700	28.6	40	27600		400	87.3	1100	inactive	inhibition [28]: inactive
N#CN1Cc2ccc(F)c(Nc3cccc(C(F)(F)F)c3)c2C1	Active			37		200	Not Active			600	50.3		2400	Active	700	35.6	300	inactive	
N#CN1Cc2cccc(Nc3ccc(C(F)(F)F)cc3)c2C1				33		200	Not Active				59.6		800		2100		1500		IC50 [25]: Not Active

— ChEMBL document CHEMBL5316282, “Small-Molecule Cyanamide Pan-TEAD·YAP1 Covalent Antagonists” (J Med Chem, 2023)
